{"source": "patent US20240050388A1", "about": "(BioLink Life Sciences, Inc., priority 2022, published 2024)", "origin": "cited, not measured here", "details": "oral"}
{"smiles": "CC(=O)[O-].CC(=O)[O-].[Ca+2]", "note": "[calcium acetate]", "values": [{"measurement": "In vivo phosphate binding", "result": "essentially quantitative"}]}
